From patent publication US8835403B2, “Algin oligosaccharides and the derivatives thereof as well as the manufacture and the use of the same” (priority 2004, dated 2014)

System: Na+, K+-ATPase
Assay: Na+, K+-ATPase activity in cerebral cortex and hippocampus of Aβ1-40-induced AD mice
Type: in vivo
Protocol: Following the behavioral test, rats are decapitated. Cerebral cortex and hippocampus are dissected on ice immediately, and stored at −80° C. after quick freezing in liquid nitrogen for 1 hour. MDA, SOD, GSH-PX, Na^+, K^+-ATPase, AchE and CHAT activities in the brain regions are determined using the respective kits. The homogenates of cerebral cortex and hippocampus are prepared with saline with a final concentration of 10% and 5%. The supernatant were obtained after centrifuging at 3600 rpm to test MDA, CuZn-SOD, GSH-PX, Na^+K^+-ATPase, AchE, and CHAT activities. The activity of ChAT is determined with isotope-labeled method. The other indexes and amount of total proteins are tested with the respective kits supplied by Nanjing Jiancheng Bioengineering Institute.

Q: Which “ATPase activity (μmol Pi/mg prot./hour) cerebral cortex” value (15 mg/kg) does the source give for `O=C(O)C1OC(OC2C(C(=O)O)OC(OC3C(C(=O)O)OC(OC4C(C(=O)O)OC(OC5C(C(=O)O)OC(OC6C(C(=O)O)OC(O)C(O)C6O)C(O)C5O)C(O)C4O)C(O)C3O)C(O)C2O)C(O)C(O)C1O` (stereo not drawn) [6-mer, mannuronic hexasaccharide] here?
A: 1.08 ± 0.06 μmol Pi/mg prot./hour

Q: And the “ATPase activity (μmol Pi/mg prot./hour) cerebral cortex” value (30 mg/kg)?
A: 1.09 ± 0.08 μmol Pi/mg prot./hour

Q: What about the “ATPase activity (μmol Pi/mg prot./hour) cerebral cortex” value (60 mg/kg) of the same compound?
A: 1.08 ± 0.05 μmol Pi/mg prot./hour

Q: And the “ATPase activity (μmol Pi/mg prot./hour) hippocampus” value (15 mg/kg)?
A: 2.10 ± 0.29 μmol Pi/mg prot./hour

Q: And the “ATPase activity (μmol Pi/mg prot./hour) hippocampus” value (30 mg/kg)?
A: 2.07 ± 0.23 μmol Pi/mg prot./hour

Q: What about the “ATPase activity (μmol Pi/mg prot./hour) hippocampus” value (60 mg/kg) of the same compound?
A: 2.52 ± 0.25 μmol Pi/mg prot./hour
